# Laboratory results taken from patent US20230295157A1, “3-(1H-IMIDAZOL-2-YL)-2,3,8,8A-TETRAHYDROINDOLIZIN-5(1H)-ONE DERIVATIVES USEFUL AS FACTOR XIA INHIBITORS” (JANSSEN PHARMACEUTICA NV, priority 2020, published 2023).
# Read-outs that look alike come from different tables or passages of the source.
# Columns and labels:
# human plasma kallikrein = human plasma kallikrein (Homo sapiens (Human), UniProt P03952); assay: Kallikrein inhibition assay (FLINT) utilizing a quenched AMC peptide substrate; assay type: biochemical; settings: 30 min preincubation, read-out: Kallikrein Kin Inh IC50
# How it was run: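 Enzyme (2 nM final) pre-incubated 30 min at room temperature with compound (11-point, 3-fold, top 1 μM, 2% DMSO), then 50 μM Z-Gly-Pro-Arg-AMC added in Tris pH 7.5 buffer. Kinetic fluorescence 340/440 nm every 5 min over 30 min; IC50 from 4-parameter logistic fit.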
# Factor XIa = Factor XIa (Homo sapiens (Human), UniProt P03951); assay: Factor XIa inhibition assay (FLINT) utilizing a fluorophore-quencher pair peptide substrate; assay type: biochemical; settings: 30 min preincubation, kinetic reads over 30 min, read-out: FXIa Kin Inh IC50
# How it was run: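 FXIa ([…]) preincubated 30 min with compound (11-point 3-fold dilution, top 100 nM, 2% DMSO), then 15 μM quenched FXI Arg146-based peptide added; Tris pH 7.5, CaCl2, BSA, CHAPS. Fluorescence 485/520 nm read kinetically every 5 min over 30 min at RT; IC50 by 4-parameter fit.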
# [1] = kinetic reads over 30 min, Z-Gly-Pro-Arg-AMC substrate 50 μM
# [2] = 5Fam-KLTRAETV-K5Tamra substrate 15 μM
# [3] = 5Fam-[…]-K5Tamra substrate 15 μM
# Sequence of Factor XIa (P03951 388-625): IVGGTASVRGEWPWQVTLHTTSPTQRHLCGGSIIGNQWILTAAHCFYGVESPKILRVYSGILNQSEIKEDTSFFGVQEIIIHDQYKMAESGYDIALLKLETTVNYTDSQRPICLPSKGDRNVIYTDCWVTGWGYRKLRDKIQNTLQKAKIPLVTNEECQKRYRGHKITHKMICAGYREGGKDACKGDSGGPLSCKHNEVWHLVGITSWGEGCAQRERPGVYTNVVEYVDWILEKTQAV
# Sequence of Factor XIa (P03951 19-387 partner): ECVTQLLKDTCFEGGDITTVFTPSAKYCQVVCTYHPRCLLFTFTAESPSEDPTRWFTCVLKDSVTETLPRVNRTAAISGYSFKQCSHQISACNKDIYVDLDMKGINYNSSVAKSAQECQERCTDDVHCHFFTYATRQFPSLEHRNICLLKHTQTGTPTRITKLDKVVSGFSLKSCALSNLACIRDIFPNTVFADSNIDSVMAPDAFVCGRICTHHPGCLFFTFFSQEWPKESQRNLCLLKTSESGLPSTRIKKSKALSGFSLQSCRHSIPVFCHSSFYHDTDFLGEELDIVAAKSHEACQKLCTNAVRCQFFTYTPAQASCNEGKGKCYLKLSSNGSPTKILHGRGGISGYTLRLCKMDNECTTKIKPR
# Sequence of human plasma kallikrein (P03952 391-638): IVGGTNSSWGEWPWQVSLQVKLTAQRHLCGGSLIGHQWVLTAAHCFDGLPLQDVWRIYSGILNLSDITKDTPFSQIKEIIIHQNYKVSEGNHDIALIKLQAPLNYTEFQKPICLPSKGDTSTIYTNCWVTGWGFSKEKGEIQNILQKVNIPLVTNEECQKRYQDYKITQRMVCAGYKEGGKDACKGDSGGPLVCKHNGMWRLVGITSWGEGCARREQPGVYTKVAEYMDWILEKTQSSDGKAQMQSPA
# Sequence of human plasma kallikrein (P03952 20-390 partner): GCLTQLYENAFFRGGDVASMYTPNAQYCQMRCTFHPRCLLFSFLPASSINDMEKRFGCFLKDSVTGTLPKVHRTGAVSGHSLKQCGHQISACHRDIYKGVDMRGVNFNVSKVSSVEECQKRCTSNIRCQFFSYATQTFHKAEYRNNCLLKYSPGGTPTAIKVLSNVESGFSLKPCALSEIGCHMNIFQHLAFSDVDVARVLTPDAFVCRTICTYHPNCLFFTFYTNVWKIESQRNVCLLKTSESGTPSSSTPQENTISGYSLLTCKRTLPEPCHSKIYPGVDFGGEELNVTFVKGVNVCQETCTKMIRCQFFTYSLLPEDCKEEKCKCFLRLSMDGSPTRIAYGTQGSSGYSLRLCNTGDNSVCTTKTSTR
IC50 (human plasma kallikrein; [1]) [µM],IC50 (Factor XIa; [2]) [nM],"IC50 (human plasma kallikrein; μM, kinetic reads) [µM]",IC50 (Factor XIa; [3]) [nM],Compound
0.0396,0.7,–,–,"O=C(O)c1ccc(-c2c[nH]c(C3CCC4CC(c5cc(Cl)ccc5-n5cc(C(F)(F)F)nn5)=CC(=O)N43)n2)s1 (stereo not drawn) [Example 373, 5-(2-(7-(5-chloro-2-(4-(trifluoromethyl)-1H-1,2,3-triazol-1-yl)phenyl)-5-oxo-1,2,3,5,8,8a-hexahydroindolizin-3-yl)-1H-imidazol-4-yl)thiophene-2-carboxylic acid]"
0.0185,1.3,–,–,"CC1(C)C[C@@H](c2ncc(-c3ccc(N)nc3F)[nH]2)N2C(=O)C=C(c3c(-n4cnnn4)ccc(Cl)c3F)CC21 (stereo partly drawn) [Example 350, (3S)-3-(5-(6-Amino-2-fluoropyridin-3-yl)-1H-imidazol-2-yl)-7-(3-chloro-2-fluoro-6-(1H-tetrazol-1-yl)phenyl)-1,1-dimethyl-2,3,8,8a-tetrahydroindolizin-5(1H)-one]"
0.0018,0.7,–,–,"O=C1CCc2cc(-c3[nH]c([C@@H]4CC[C@@H]5CC(c6cc(Cl)ccc6-n6cc(C(F)(F)F)nn6)=CC(=O)N54)nc3F)ccc2N1 [Example 81, 6-[2-[(3S,8aR)-7-[5-chloro-2-[4-(trifluoromethyl)triazol-1-yl]phenyl]-5-oxo-2,3,8,8a-tetrahydro-1H-indolizin-3-yl]-4-fluoro-1H-imidazol-5-yl]-3,4-dihydro-1H-quinolin-2-one]"
–,282,1.1,–,"O=C1C=C(c2c(-n3cnnn3)ccc(Cl)c2F)CC2CC[C@@H](c3nc(-c4ncc[nH]4)c[nH]3)N12 (stereo partly drawn) [Example 333, (3S)-3-(1H,1′H-[2,4′-Biimidazol]-2′-yl)-7-(3-chloro-2-fluoro-6-(1H-tetrazol-1-yl)phenyl)-2,3,8,8a-tetrahydroindolizin-5(1H)-one]"
0.012,–,–,3.1,"O=C1C=C(c2cc(Cl)ccc2-n2cc(C(F)(F)F)nn2)C[C@H]2CC[C@@H](c3ncc(-c4ccc5[nH]c(=O)cnc5c4F)[nH]3)N12 (relative stereo) [Example 59, 6-(2-((3S*,8aR*)-7-(5-chloro-2-(4-(trifluoromethyl)-1H-1,2,3-triazol-1-yl)phenyl)-5-oxo-1,2,3,5,8,8a-hexahydroindolizin-3-yl)-1H-imidazol-5-yl)-5-fluoroquinoxalin-2(1H)-one]"
> 0.1,–,–,92.7,"Nc1ccccc1-c1cnc([C@@H]2CC[C@H]3CC(c4c(-n5cnnn5)ccc(Cl)c4F)=CC(=O)N32)[nH]1 (relative stereo) [Example 308, (3S,8aS*)-3-(4-(2-Aminophenyl)-1H-imidazol-2-yl)-7-(3-chloro-2-fluoro-6-(1H-tetrazol-1-yl)phenyl)-2,3,8,8a-tetrahydroindolizin-5(1H)-one]"
0.0078,1,–,–,"CC(C)(O)CCc1nccc(-c2cnc([C@@H]3CC[C@@H]4CC(c5c(-n6cnnn6)ccc(Cl)c5F)=CC(=O)N43)[nH]2)c1F (single isomer, unassigned) [Example 158, (3*S,8a*R)-7-(3-chloro-2-fluoro-6-(1H-tetrazol-1-yl)phenyl)-3-(5-(3-fluoro-2-(3-hydroxy-3-methylbutyl)pyridin-4-yl)-1H-imidazol-2-yl)-2,3,8,8a-tetrahydroindolizin-5(1H)-one]"
0.006,3.7,–,–,"O=C1C=C(c2c(-n3cnnn3)ccc(Cl)c2F)C[C@H]2CC[C@H](c3nc(F)c(-c4ccnc(-n5cncn5)c4F)[nH]3)N12 (single isomer, unassigned) [Example 92, 7-[3-Chloro-2-fluoro-6-(tetrazol-1-yl)phenyl]-3-[4-fluoro-5-[3-fluoro-2-(1,2,4-triazol-1-yl)-4-pyridyl]-1H-imidazol-2-yl]-2,3,8,8a-tetrahydro-1H-indolizin-5-one]"
0.0216,3.1,–,–,"COCc1nccc(-c2c[nH]c([C@@H]3CCC4CC(c5c(-n6cnnn6)ccc(Cl)c5F)=CC(=O)N43)n2)c1F (stereo partly drawn) [Example 177, (3S)-7-(3-chloro-2-fluoro-6-(1H-tetrazol-1-yl)phenyl)-3-(4-(3-fluoro-2-(methoxymethyl)pyridin-4-yl)-1H-imidazol-2-yl)-2,3,8,8a-tetrahydroindolizin-5(1H)-one]"
0.0076,0.5,–,–,"[2H]c1nc([C@@H]2CC[C@@H]3CC(c4c(-n5cnnn5)ccc(Cl)c4F)=CC(=O)N32)[nH]c1-c1c(F)nc(N)c([2H])c1[2H] [Example 149, (3S,8aR)-3-[5-(6-amino-4,5-dideuterio-2-fluoro-3-pyridyl)-4-deuterio-1H-imidazol-2-yl]-7-[3-chloro-2-fluoro-6-(tetrazol-1-yl)phenyl]-2,3,8,8a-tetrahydro-1H-indolizin-5-one]"
0.0095,1.3,–,–,"O=C1C=C(c2c(-n3cnnn3)ccc(Cl)c2F)C[C@H]2CC[C@@H](c3ncc(-c4ccnc5c4CCO5)[nH]3)N12 [Example 386, (3S,8aR)-7-(3-chloro-2-fluoro-6-(1H-tetrazol-1-yl)phenyl)-3-(5-(2,3-dihydrofuro[2,3-b]pyridin-4-yl)-1H-imidazol-2-yl)-2,3,8,8a-tetrahydroindolizin-5(1H)-one]"
0.0462,77,–,–,CC(C)Oc1ccccc1-c1cnc([C@@H]2CCC3CC(c4c(-n5cnnn5)ccc(Cl)c4F)=CC(=O)N32)[nH]1 (stereo partly drawn) [Example 294]
0.0008,0.3,–,–,"CNc1n[nH]c2cc(-c3cnc([C@@H]4CCC5CC(c6c(-n7cnnn7)ccc(Cl)c6F)=CC(=O)N54)[nH]3)ccc12 (stereo partly drawn) [Example 258, (3S)-7-[3-Chloro-2-fluoro-6-(tetrazol-1-yl)phenyl]-3-[5-[3-(methylamino)-1H-indazol-6-yl]-1H-imidazol-2-yl]-2,3,8,8a-tetrahydro-1H-indolizin-5-one]"
0.0094,1.3,–,–,"CC(O)COc1nccc(-c2cnc([C@@H]3CC[C@@H]4CC(c5c(-n6cnnn6)ccc(Cl)c5F)=CC(=O)N43)[nH]2)c1F (single isomer, unassigned) [Example 28]"
0.0029,1.5,–,–,"O=C1C=C(c2c(-n3cnnn3)ccc(Cl)c2F)C[C@H]2CC[C@@H](c3nc(-c4ccnc5[nH]ccc45)c[nH]3)N12 [Example 32, (3S,8aR)-3-(4-(1H-pyrrolo[2,3-b]pyridin-4-yl)-1H-imidazol-2-yl)-7-(3-chloro-2-fluoro-6-(1H-tetrazol-1-yl)phenyl)-2,3,8,8a-tetrahydroindolizin-5(1H)-one]"
0.0038,2.9,–,–,"O=C1C=C(c2c(-n3cnnn3)ccc(Cl)c2F)C[C@H]2CC[C@@H](c3ncc(-c4ccnc(N5CCC5)c4F)[nH]3)N12 (single isomer, unassigned) [Example 111, (3*S,8aR)-3-(5-(2-(azetidin-1-yl)-3-fluoropyridin-4-yl)-1H-imidazol-2-yl)-7-(3-chloro-2-fluoro-6-(1H-tetrazol-1-yl)phenyl)-2,3,8,8a-tetrahydroindolizin-5(1H)-one]"
0.011,0.5,–,–,"Nc1ccc(-c2cnc([C@@H]3CC[C@H]4CC(c5c(-n6cnnn6)ccc(Cl)c5F)=CC(=O)N43)[nH]2)c(F)n1 [Example 359, (3S,8aS)-3-(5-(6-Amino-2-fluoropyridin-3-yl)-1H-imidazol-2-yl)-7-(3-chloro-2-fluoro-6-(1H-tetrazol-1-yl)phenyl)-2,3,8,8a-tetrahydroindolizin-5(1H)-one]"
0.0211,4.7,–,–,"O=C1C=C(c2c(-n3cnnn3)ccc(Cl)c2F)C[C@H]2CC[C@@H](c3ncc(-c4ccc(CO)nc4F)[nH]3)N12 (single isomer, unassigned) [Example 235]"
